Data published in US9815847B2 (Icahn School of Medicine at Mount Sinai, priority 2013, dated 2017).

Key:
[1] = tested on: K562; experiment: Cytotoxicity on K562 cancer cell line; assay type: cell-based; conditions: Homo sapiens; K562 chronic myelogenous leukemia; 96 h; 0.01-100 μM
Protocol: (§1) The effect of the compounds described herein on tumor cells was determined by the assay described by Latham et al., Oncogene 12:827-837 (1996). Tumor cells K562 (chronic myelogenous leukemia; leukemia cell line +ve for Bcr-Abl) or DU145 (prostate cancer) were plated in 12-well dishes at a cell density of 2.5×10^4 cells per well. The plated cells were treated 24 h. later with a DMSO solution of a compound as described herein at multiple concentrations ranging from 0.01 μM to 100 μM. The plates were examined 96 h. later under an inverted microscope, Olympus CK-2 using a 10× objective, and compound activity was noted by physical observation. When necessary, the total number of viable cells was determined by trypsinizing the wells and counting the number of viable cells, as determined by trypan blue exclusion, using a hemacytometer.

[2] = tested on: DU145; experiment: Cytotoxicity on DU145 cancer cell line; assay type: cell-based; conditions: Homo sapiens, DU-145; DU145 prostate cancer; 96 h; 0.01-100 μM
Protocol: as §1

Structure (SMILES)	IC50 [1]	IC50 [2]
CN1CCN(c2ccc(Nc3ncc(/C=C/C#N)c(N)n3)cc2)CC1 [Compound 8a, 3-{4-Amino-2-[4-(4-methylpiperazin-1-yl)phenylamino]pyrimidin-5-yl}acrylonitrile]	1000 to 25000 nM	1000 to 25000 nM
CN1CCN(c2ccc(Nc3ncc(/C=C/C#N)c(Nc4ccn(C)n4)n3)cc2)CC1 [Compound 8aa, (E)-3-(4-[(1-Methyl-1H-pyrazol-3-yl)amino]-2-{[4-(4-methylpiperazin-1-yl)phenyl]amino}pyrimidin-5-yl)acrylonitrile]	1000 to 25000 nM	1000 to 25000 nM
CNc1nc(Nc2ccc(N3CCN(C)CC3)cc2)ncc1/C=C/C#N [Compound 8b, 3-{4-Methylamino-2-[4-(4-methylpiperazin-1-yl)-phenylamino]pyrimidin-5-yl}acrylonitrile]	< 1000 nM	1000 to 25000 nM
COc1cc(N2CCN(C)CC2)ccc1Nc1ncc(/C=C/C#N)c(NC2CCCC2)n1 [Compound 8bb, (E)-3-[4-(Cyclopentylamino)-2-{[2-methoxy-4-(4-methylpiperazin-1-yl)phenyl]amino}pyrimidin-5-yl]acrylonitrile]	1000 to 25000 nM	1000 to 25000 nM
CCNc1nc(Nc2ccc(N3CCN(C)CC3)cc2)ncc1/C=C/C#N [Compound 8c, 3-{4-Ethylamino-2-[4-(4-methylpiperazin-1-yl)phenylamino]pyrimidin-5-yl}acrylonitrile]	< 1000 nM	< 1000 nM
CCCNc1nc(Nc2ccc(N3CCN(C)CC3)cc2)ncc1/C=C/C#N [Compound 8d, 3-{4-Propylamino-2-[4-(4-methylpiperazin-1-yl)phenylamino]pyrimidin-5-yl}acrylonitrile]	< 1000 nM	< 1000 nM
CC(C)Nc1nc(Nc2ccc(N3CCN(C)CC3)cc2)ncc1/C=C/C#N [Compound 8e, 3-{4-Isopropylamino-2-[4-(4-methylpiperazin-1-yl)phenylamino]pyrimidin-5-yl}acrylonitrile]	< 1000 nM	< 1000 nM
CN1CCN(c2ccc(Nc3ncc(/C=C/C#N)c(NCC4CC4)n3)cc2)CC1 [Compound 8f, 3-{4-(Cyclopropylmethyl)amino-2-[4-(4-methylpiperazin-1-yl)phenylamino]pyrimidin-5-yl}acrylonitrile]	< 1000 nM	< 1000 nM
CN1CCN(c2ccc(Nc3ncc(/C=C/C#N)c(NC4CC4)n3)cc2)CC1 [Compound 8g, 3-{4-Cyclopropylamino-2-[4-(4-methylpiperazin-1-yl)phenylamino]pyrimidin-5-yl}acrylonitrile]	< 1000 nM	< 1000 nM
CN1CCN(c2ccc(Nc3ncc(/C=C/C#N)c(NC4CCCCC4)n3)cc2)CC1 [Compound 8i, 3-{4-Cyclohexylamino-2-[4-(4-methylpiperazin-1-yl)phenylamino]pyrimidin-5-yl}acrylonitrile]	< 1000 nM	1000 to 25000 nM
N#C/C=C/c1cnc(Nc2ccc(N3CCOCC3)cc2)nc1NC1CCCC1 [Compound 8j, 3-{4-Cyclopentylamino-2-[(4-morpholin-4-yl)phenylamino]pyrimidin-5-yl}acrylonitrile]	1000 to 25000 nM	1000 to 25000 nM
N#C/C=C/c1cnc(Nc2ccc3[nH]ccc3c2)nc1NC1CCCC1 [Compound 8k, 3-[4-Cyclopentylamino-2-(1H-indol-5-ylamino)pyrimidin-5-yl]acrylonitrile]	< 1000 nM	1000 to 25000 nM
CN1CCC(c2ccc(Nc3ncc(/C=C/C#N)c(NC4CCCC4)n3)cc2)CC1 [Compound 8l, 3-{4-Cyclopentylamino-2-[4-(1-methylpiperidin-4-yl)phenylamino]pyrimidin-5-yl}acrylonitrile]	1000 to 25000 nM	1000 to 25000 nM
CNc1nc(Nc2ccc3[nH]ccc3c2)ncc1/C=C/C#N [Compound 8m, 3-[2-(1H-Indol-5-ylamino)-4-(methylamino)pyrimidin-5-yl]acrylonitrile]	< 1000 nM	< 1000 nM
COc1ccc(Nc2ncc(/C=C/C#N)c(NC3CCCC3)n2)cc1 [Compound 8n, 3-{4-(Cyclopentylamino)-2-[(4-methoxyphenyl)amino]pyrimidin-5-yl)acrylonitrile]	1000 to 25000 nM	1000 to 25000 nM
CCN1CCN(c2ccc(Nc3ncc(/C=C/C#N)c(NC4CCCC4)n3)cc2)CC1 [Compound 8o, 3-{4-Cyclopentylamino-2-[4-(1-ethylpiperazin-4-yl)-phenylamino]-pyrimidin-5-yl}acrylonitrile]	< 1000 nM	< 1000 nM
N#C/C=C/c1cnc(NCc2ccccc2)nc1NC1CCCC1 [Compound 8p, 3-[2-(Benzylamino)-4-(cyclopentylamino)pyrimidin-5-yl]acrylonitrile]	25000 to 50000 nM	25000 to 50000 nM

Structure (SMILES)	IC50 [1]	IC50 [2]
CN1CCN(c2ccc(Nc3ncc(/C=C/C#N)c(NC4CCCC4)n3)nc2)CC1 [Compound 8q, 3-(4-(Cyclopentylamino)-2-((5-(4-methylpiperazin-1-yl)pyridin-2-yl)amino)pyrimidin-5-yl)acrylonitrile]	< 1000 nM	< 1000 nM
N#C/C=C/c1cnc(Nc2ccc(N3CCOCC3)cc2)nc1NCC1CC1 [Compound 8r, 3-{4-[N-(Cyclopropylmethyl)amino]-2-[4-(morpholin-4-yl)phenylamino]pyrimidin-5-yl}acrylonitrile]	< 1000 nM	< 1000 nM
COc1ccc(Nc2ncc(/C=C/C#N)c(NCC3CC3)n2)cc1 [Compound 8s]	1000 to 25000 nM	1000 to 25000 nM
CCN1CCN(c2ccc(Nc3ncc(/C=C/C#N)c(NCC4CC4)n3)cc2)CC1 [Compound 8t, 3-{4-[(Cyclopropylmethyl)amino]-2-[4-(4-ethylpiperazin-1-yl)phenylamino]pyrimidin-5-yl}acrylonitrile]	< 1000 nM	< 1000 nM
N#C/C=C/c1cnc(Nc2ccc3[nH]ccc3c2)nc1NCC1CC1 [Compound 8u, 3-{4-[(Cyclopropylmethyl)amino]-2-[(1H-indol-5-yl)amino]pyrimidin-5-yl)acrylonitrile]	< 1000 nM	< 1000 nM
CCN(C)c1nc(Nc2ccc(N3CCN(C)CC3)cc2)ncc1/C=C/C#N [Compound 8v, 3-{4-(N-Ethyl-N-methylamino)-2-[4-(4-methylpiperazin-1-yl)phenylamino]pyrimidin-5-yl}acrylonitrile]	25000 to 50000 nM	25000 to 50000 nM
CN1CCN(c2ccc(Nc3ncc(/C=C/C#N)c(N4CCCC4)n3)cc2)CC1 [Compound 8w, 3-{2-[4-(4-Methylpiperazin-1-yl)phenylamino]-4-(pyrrolidin-1-yl)pyrimidin-5-yl}acrylonitrile]	1000 to 25000 nM	1000 to 25000 nM
CCN(c1nc(Nc2ccc(N3CCN(C)CC3)cc2)ncc1/C=C/C#N)C1CCCC1 [Compound 8x, 3-{4-(N-Cyclopentyl-N-ethylamino)-2-[4-(4-methylpiperazin-1-yl)phenylamino]pyrimidin-5-yl}acrylonitrile]	< 1000 nM	< 1000 nM
CN1CCN(c2ccc(N(C(=O)CCCC[C@@H]3SC[C@@H]4NC(=O)N[C@@H]43)c3ncc(/C=C/C#N)c(NC4CCCC4)n3)cc2)CC1 [Compound 8y, N-[5-(2-Cyanovinyl)-4-(cyclopentylamino)pyrimidin-2-yl]-N-[4-(4-methylpiperazin-1-yl)phenyl]-5-((3aS,4S,6aR)-2-oxohexahydro-1H-thieno[3,4-d]imidazol-4-yl)pentanamide]	1000 to 25000 nM	1000 to 25000 nM
N#C/C=C/c1cnc(N2CCOCC2)nc1NC1CCCC1 [Compound 8z, (E)-3-[4-(Cyclopentylamino)-2-morpholinopyrimidin-5-yl]acrylonitrile]	1000 to 25000 nM	1000 to 25000 nM
CNc1nc(Nc2ccc3[nH]ccc3c2)ncc1/C=C/S(=O)(=O)c1ccc(F)cc1F [Compound 15a, 5-{2-[2,4-(Difluorophenyl)sulfonyl]vinyl}-N^2-(1H-indol-5-yl)-N^4-methylpyrimidine-2,4-diamine]	1000 to 25000 nM	1000 to 25000 nM
CN1CCN(c2ccc(Nc3ncc(/C=C/S(=O)(=O)c4ccc(F)cc4F)c(NC4CCCC4)n3)cc2)CC1 [Compound 15b, N^4-Cyclopentyl-5-{2-[(2,4-difluorophenyl)sulfonyl]vinyl}-N^2-[4-(4-methylpiperazin-1-yl)phenyl]pyrimidine-2,4-diamine]	1000 to 25000 nM	1000 to 25000 nM
CNc1nc(Nc2ccc3cc[nH]c3c2)ncc1/C=C/S(=O)(=O)c1ccc(F)cc1F [Compound 15c, 5-{2-[2,4-(Difluorophenyl)sulfonyl]vinyl}-N^2-(1H-indol-6-yl)-N^4-methylpyrimidine-2,4-diamine]	1000 to 25000 nM	1000 to 25000 nM
CNc1nc(Nc2ccc(N3CCN(C)CC3)cc2)ncc1/C=C/S(=O)(=O)c1ccc(F)cc1F [Compound 15d, (E)-5-{2-[(2,4-Difluorophenyl)sulfonyl]vinyl}-N^4-methyl-N^2-[4-(4-methylpiperazin-1-yl)phenyl]pyrimidine-2,4-diamine]	1000 to 25000 nM	1000 to 25000 nM
CNc1nc(Nc2ccc(N3CCOCC3)cc2)ncc1/C=C/S(=O)(=O)c1ccc(F)cc1F [Compound 15e, (E)-5-{2-[(2,4-Difluorophenyl)sulfonyl]vinyl}-N^4-methyl-N^2-(4-morpholinophenyl)pyrimidine-2,4-diamine]	50000 to 100000 nM	50000 to 100000 nM
CNc1nc(Nc2ccc(OC)cc2)ncc1/C=C/S(=O)(=O)c1ccc(F)cc1F [Compound 15f, (E)-5-{2-[(2,4-Difluorophenyl)sulfonyl]vinyl}-N^2-(4-methoxyphenyl)-N^4-methylpyrimidine-2,4-diamine]	25000 to 50000 nM	25000 to 50000 nM
